Where two headings read alike, the source gives them in different places.
Tests used:
ATRIA = biological target: T1, ATRIA (Cavia porcellus, UniProt H0W3H1); assay: In vitro potency (pA2), beta-blocking, atria; type: cell-based
T1 construct: ATRIA; from tissue
Procedure: (§1) The in vitro potency (pA2), in vivo potency and duration of action (DOA) of the compounds of the present invention are recorded in Tables 2 to 4. These pharmacological activities were determined using the methods described in U.S. patent 4,582,855 issued Apr.

[1] = Ocular bioavailability in rabbits; type: in vivo, New Zealand White Rabbits; conditions: for Tmax: rabbit, topical or ocular
Procedure: The ocular bioavailability of Timolol and compound 1 (monopivaloyl ester prodrug of compound 2) was evaluated in New Zealand White Rabbits. Fifty μL of a solution of 0.25% Timolol or 0.5% compound 1 (both in the same vehicle) were administered onto the cornea of both eyes of 48 rabbits (24 rabbits/compound). At 5, 15, 30, 60, 120, 180, 240, and 360 minutes after dosing, 3 rabbits (6 eyes)/compound were killed. The cornea, aqueous humor (AH), iris-ciliary body complex (I-CBC) were quickly removed from the eyes, weighed and processed to determine tissue levels of Timolol or compound 1 and compound 2.

beta-blocking effects = assay: In vivo beta-blocking potency and duration of action (DOA); conditions: Tables 2 and 4
Procedure: as §1

[2] = test system: isoproterenol-induced changes in heart rate or diastolic blood pressure; assay: Effect on systemic beta-blockade upon topical administration (isoproterenol-induced changes in heart rate or diastolic blood pressure); type: in vivo, Mongrel dogs; conditions: for Diastolic blood pressure (DBP) / Heart rate (HR): Table 1, 0.5%
Procedure: Mongrel dogs were anesthetized and control readings were made at -45 and -30 minutes. Following the -30 minute reading, an infusion of isoproterenol (0.5 μg/kg/min) was begun and maintained during the course of the experiment. Two readings of pretreatment isoproterenol responses were made at […] and at zero minutes.
At zero minutes, a 50 μL sample of test compound was administered topically. […] Heart rate was obtained directly from the strip chart recording.

[3] = Table 3, atria, read-out: pA2 ATRIA (converted)
[4] = Tables 2 and 4, read-out: In-vitro potency pA2 (converted)
[5] = 50 μL, 0.25% solution, single or repeated topical applications
[6] = 15 min post-treatment, isoproterenol infusion
[7] = 30 min post-treatment, isoproterenol infusion
[8] = 45 min post-treatment, isoproterenol infusion
[9] = 60 min post-treatment (dose), isoproterenol infusion
[10] = 75 min post-treatment, isoproterenol infusion
[11] = 90 min post-treatment, isoproterenol infusion
[12] = 105 min post-treatment, isoproterenol infusion
[13] = 120 min post-treatment (dose), isoproterenol infusion
[14] = 135 min post-treatment, isoproterenol infusion
[15] = 150 min post-treatment, isoproterenol infusion
[16] = 165 min post-treatment, isoproterenol infusion
[17] = 180 min post-treatment, isoproterenol infusion
[18] = Table 1 summary, given as "down"

T1 sequence (H0W3H1 1-470): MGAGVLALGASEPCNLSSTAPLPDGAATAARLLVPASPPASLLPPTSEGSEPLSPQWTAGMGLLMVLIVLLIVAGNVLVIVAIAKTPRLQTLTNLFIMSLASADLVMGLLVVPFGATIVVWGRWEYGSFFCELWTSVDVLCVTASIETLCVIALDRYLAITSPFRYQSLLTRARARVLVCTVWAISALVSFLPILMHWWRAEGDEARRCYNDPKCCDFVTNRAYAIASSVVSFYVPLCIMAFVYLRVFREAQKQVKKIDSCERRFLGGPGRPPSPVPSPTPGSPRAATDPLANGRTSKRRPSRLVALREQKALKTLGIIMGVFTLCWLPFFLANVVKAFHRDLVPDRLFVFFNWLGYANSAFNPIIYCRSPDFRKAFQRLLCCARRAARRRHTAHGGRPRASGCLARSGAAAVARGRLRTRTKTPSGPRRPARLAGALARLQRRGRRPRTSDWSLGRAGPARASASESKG

## Cc1cc(O)c(O)cc1C(=O)OCC(O)CNC(C)(C)CNC(=O)C1CCC1 (centres unmarked)
ATRIA; [3]
  Kb: 5.01 nM

## COc1ccccc1C(=O)NCC(C)(C)NCC(O)COC(=O)c1cc(O)c(O)cc1C (centres unmarked)
ATRIA; [3]
  Kb: 398 nM

## Cc1cc(O)c(O)cc1C(=O)OCC(O)CNC(C)(C)CNC(=O)C1CCOC1 (centres unmarked) [Compound 2]
[1]; AH, 0-240 min, 0.25% Timolol or 0.5% compound 1
  Area under the concentration time curve (AUC0-240'), AH: 27,377 ng/100 μL/min
[1]; I-CBC, 0-240 min, 0.25% Timolol or 0.5% compound 1
  Area under the concentration time curve (AUC0-240'), I-CBC: 2,981 ng/50 mg/min
[1]; cornea, 0-240 min, 0.25% Timolol or 0.5% compound 1
  Area under the concentration time curve (AUC0-240'), cornea: 95,789 ng/50 mg/min
[1]; rabbit ocular tissues
  Stability in rabbit ocular tissues: stable in rabbit ocular tissues

## COc1cc(O)c(O)cc1C(=O)OCC(O)CNC(C)(C)CNC(=O)C(C)C (centres unmarked) [OMe]
beta-blocking effects
  DOA (duration of action): 30 min

## CCCC(=O)NCC(C)(C)NCC(O)COC(=O)c1cc(O)c(O)cc1C (centres unmarked)
ATRIA; [3]
  Kb: 6.31 nM

## COc1cc(O)c(O)cc1C(=O)OCC(O)CNC(C)(C)CNC(=O)C(C)C (centres unmarked) [drawing 30]
ATRIA; [3]
  Kb: 12.6 nM

## Cc1cc(O)c(O)cc1C(=O)OCC(O)CNC(C)(C)CNC(=O)c1ccoc1 (centres unmarked)
ATRIA; [3]
  Kb: 25.1 nM

## Cc1cc(O)c(O)cc1C(=O)OCC(O)CNC(C)(C)CNC(=O)c1ccccc1F (centres unmarked)
ATRIA; [3]
  Kb: 100 nM

## Cc1cc(O)c(O)cc1C(=O)OCC(O)CNC(C)(C)CNC(=O)C1CCOCC1 (centres unmarked)
ATRIA; [4]
  Kb: 5.01 nM
beta-blocking effects
  DOA (duration of action): 26 min

## COc1ccc(C(=O)NCC(C)(C)NCC(O)COC(=O)c2cc(O)c(O)cc2C)cc1 (centres unmarked)
ATRIA; [3]
  Kb: 31.6 nM

## Cc1cc(O)c(O)cc1C(=O)OCC(O)CNC(C)(C)CNC(=O)Cc1ccccc1 (centres unmarked)
ATRIA; [3]
  Kb: 100 nM

## CCOc1cc(O)c(O)cc1C(=O)OCC(O)CNC(C)(C)CNC(=O)C(C)C (centres unmarked) [drawing 32]
ATRIA; [3]
  Kb: 20 nM

## Cc1cc(O)c(O)cc1C(=O)OCC(CNC(C)(C)CNC(=O)C1CCOC1)OC(=O)C(C)(C)C (centres unmarked) [Compound 1]
[1]; 0.25% Timolol or 0.5% compound 1, topical
  Absorption across the cornea: rapidly absorbed across the cornea
[1]; 0.5% compound 1, topical
  Metabolism of compound 1 to compound 2: rapid metabolism of compound 1 to compound 2
[1]; 0.5% compound 1 vs 0.25% Timolol, greater than Timolol
  AUC in AH relative to AUC of Timolol in AH: 3 ×
[1]; I-CBC, 0.5% compound 1
  Detectability in I-CBC: not detectable
[1]; aqueous humor, AH, 0.25% Timolol or 0.5% compound 1, read-out: Time of peak level in aqueous humor (AH) (converted)
  Tmax: 30 min
[1]; cornea, 0.25% Timolol or 0.5% compound 1, read-out: Time of peak level in cornea (converted)
  Tmax: 5 min
[2]; 50 μL at 0.5 or 1.0% solution
  Effect on diastolic blood pressure response to isoproterenol: without any significant effect
  Systemic beta-blockade of isoproterenol-induced increase in heart rate: no significant systemic beta-blockade
[2]; 50 μL at 0.5 or 1.0% solution, from-to
  Diastolic blood pressure response to isoproterenol: 58-63 mmHg
[2]; [5]
  Effect on diastolic blood pressure response to isoproterenol: no effect
  Effect on heart rate response to isoproterenol: no effect
[2]; 0 min, ISO only
  Diastolic blood pressure (DBP): 58 mmHg
  Heart rate (HR): 199 bpm
[2]; [6]
  Diastolic blood pressure (DBP): 56 mmHg
  Heart rate (HR): 195 bpm
[2]; [7]
  Diastolic blood pressure (DBP): 55 mmHg
  Heart rate (HR): 192 bpm
[2]; [8]
  Diastolic blood pressure (DBP): 54 mmHg
  Heart rate (HR): 188 bpm
[2]; [9]
  Diastolic blood pressure (DBP): 55 mmHg
  Heart rate (HR): 189 bpm
[2]; [10]
  Diastolic blood pressure (DBP): 55 mmHg
  Heart rate (HR): 189 bpm
[2]; [11]
  Diastolic blood pressure (DBP): 56 mmHg
  Heart rate (HR): 189 bpm
[2]; [12]
  Diastolic blood pressure (DBP): 57 mmHg
  Heart rate (HR): 190 bpm
[2]; [13]
  Diastolic blood pressure (DBP): 59 mmHg
  Heart rate (HR): 192 bpm
[2]; [14]
  Diastolic blood pressure (DBP): 61 mmHg
  Heart rate (HR): 192 bpm
[2]; [15]
  Diastolic blood pressure (DBP): 60 mmHg
  Heart rate (HR): 192 bpm
[2]; [16]
  Diastolic blood pressure (DBP): 60 mmHg
  Heart rate (HR): 192 bpm
[2]; [17]
  Diastolic blood pressure (DBP): 63 mmHg
  Heart rate (HR): 193 bpm
[2]; -30 min, baseline
  Diastolic blood pressure (DBP): 87 mmHg
  Heart rate (HR): 143 bpm
[2]; Table 1 summary, from ISO only to end of experiment
  Summary: BP: 58-63 mmHg
[2]; [18]
  Summary: BP change: 5 mmHg
  Summary: HR change: 6 bpm
[2]; conclusion in words
  Systemic beta-blocking activity as compared to Timolol: has systemic beta-blocking activity as compared to Timolol
[2]; high concentration, unlike Timolol
  Selectivity of peripheral effects: selective for beta-1 (heart rate) responses

## Cc1cc(O)c(O)cc1C(=O)OCC(O)CNC(C)(C)CNC(=O)C(C)C (centres unmarked)
ATRIA; [4]
  Kb: 6.31 nM
beta-blocking effects
  DOA (duration of action): 42 min

From patent publication US4966914A, “Oculoselective beta-blockers as antiglaucoma agents” (E. I. Du Pont de Nemours and Company, priority 1988, dated 1990)
